Measurements: patent US6080425A, “Boron compounds and complexes as skin-rejuvenating agents” (TopGene, Inc., priority 1998, dated 2000)
Entries after “also recorded” stand apart in the source; their conditions may differ.

Columns and labels:
human fibroblasts = test: H3Proline/H3Leucine incorporation in human fibroblasts (FIG. 5); format: cell-based; conditions: single dose, compared to untreated cells
normal human fibroblasts [1] = test: Cytotoxicity on normal human fibroblasts by MTT assay (FIG. 3); format: cell-based; conditions: 72 hours; for cytotoxic effects (MTT assay), in words: single dose, normal human fibroblasts, FIG. 3: increasing concentrations
From the text: (§1) FIGS. 3-7 illustrate results of experiments designed to elucidate some of the biological properties that may be present in contemplated boron compounds/complexes. In these examples, we studied the action of two boron complexes: sodium fructo-borate (SFB) and sodium salicylato-borate (SSB), upon normal human fibroblasts, in comparison to untreated fibroblasts and ones treated with boric acid (BA, uncomplexed with any ligand). FIG. 3 depicts results of a single dose treatment of human fibroblasts with increasing concentrations of BA, SFB and SSB for 72 hours in order to determine their cytotoxic effects (by MTT assay).

normal human fibroblasts [2] = test: H3Proline incorporation in human fibroblasts (FIG. 4); format: cell-based; conditions: single dose, 72 hours, vs BA, SFB, SSB
Method: FIG. 4 is a graph depicting experimental results of H3Proline incorporation (in human fibroblasts) upon treatment with A, B, and C compared to untreated cells.
FIG. 4 depicts results from treatment of normal human fibroblasts with a single dose of BA, SFB and SSB for 72 hours, whereupon the final degree of incorporation of H3Proline was determined. The degree of H3Proline incorporation is a measure of the ongoing biosynthesis of collagen in treated cells.

normal human fibroblasts [3] = test: Collagen synthesis: ratio of H3Proline to H3Thymidine incorporation in human fibroblasts (FIG. 6); format: cell-based; conditions: single dose, 72 hours
Method: FIG. 6 is a graph depicting experimental results of increase of collagen synthesis (measured by determination of ratio between incorporation of H3Proline and H3Thymidine) in human fibroblasts by treating them with A, B and C, compared to untreated cells.
FIG. 6 depicts the results of a single dose treatment of normal human fibroblasts with the selected compounds for 72 hours, in which case the increase of collagen synthesis was calculated by ratio between incorporation of H3Proline over the incorporation of H3Thymidine under the same experimental conditions. In this experiment, SFB was best at the concentration of 1 ug/ml, while at the concentration of 10 ug/ml its activity was next to BA. […] These properties are of special value for skin-rejuvenation purposes.

normal human fibroblasts [4] = test: Multi-parameter analysis of biological activity, labeling cells with tritiated Uridine, Thymidine, Leucine and Proline (FIG. 7); format: cell-based; conditions: labeling for 8 hours
From the text: FIG. 7 is a graph depicting a multi-parameter analysis of biological activity of complex B.
as §1
FIG. 7 depicts a multi-parameter analysis of biological activity of SFB.

HIV = conditions: cited from earlier work
cat fleas = conditions: ingestion by cat fleas; cited from earlier work
[5] = test system: chick embryo pelvic cartilage; conditions: cited from earlier work
[6] = test system: rat cerebral microsomal preparations; conditions: cited from earlier work
human platelets = conditions: intact human platelets stimulated by thrombin or leukotriene B4; extracellular addition; cited from earlier work
neutrophiles = conditions: intact neutrophiles stimulated by thrombin or leukotriene B4; extracellular addition; cited from earlier work
[7] = same concentration, great molar excess of glucose in culture medium

O=C1O[B-]2(OC(=O)c3ccccc3O2)Oc2ccccc21 [SSB, sodium salicylato-borate]
preferred incorporation of H3Proline over H3Leucine, in words (human fibroblasts): best performance

sodium fructo-borate [SFB]
fold less toxic than BA (boric acid) (normal human fibroblasts [1]; 100 ug/ml, MTT assay): ~4 times | cytotoxic effects (MTT assay), in words (normal human fibroblasts [1]): least toxic; also recorded: least toxicity | cytotoxic effects (MTT assay), in words (normal human fibroblasts [1]; listed as sodium fructo-borate): minimal cytotoxic effects | cytotoxic effects (MTT assay), in words (normal human fibroblasts [1]; listed as sodium fructoborate): considerably less toxic than boric acid | degree of incorporation of H3Proline (measure of collagen biosynthesis), in words (normal human fibroblasts [2]): most beneficial effect | preferred incorporation of H3Proline over H3Leucine, in words (human fibroblasts): quite close | increase of collagen synthesis (ratio H3Proline/H3Thymidine incorporation), in words (normal human fibroblasts [3]; 1 ug/ml): best | increase of collagen synthesis (ratio H3Proline/H3Thymidine incorporation), in words (normal human fibroblasts [3]; 10 ug/ml): next to BA | overall effects (tritiated Uridine, Thymidine, Leucine and Proline labeling), in words (normal human fibroblasts [4]): quite favorable and beneficial

CC(C)[C@@H](N)C(=O)O[C@H](C)[C@@H]1C/C=C\CC[C@H](O)C(C)(C)[C@@H]2CC[C@@H](C)[C@@]3(O2)O[B-]24O[C@@H](C(=O)O1)[C@]1(O[C@@H](CC[C@H]1C)C(C)(C)[C@H](O)CCC[C@@H]1C[C@H](OC(=O)[C@@H]3O2)[C@@H](C)O1)O4.[H+] [boromycin]
anti-HIV activity (HIV): anti-HIV antibiotic

O.O.O.O.O.O.O.O.O.O.[Na+].[Na+].[O-]B1OB2OB([O-])OB(O1)O2 [sodium borate, reference compound]
cytotoxic effects (MTT assay), in words (normal human fibroblasts [1]): minimal cytotoxic effects

OB(O)O [BA, boric acid]
larvicidal effects (cat fleas): Larvicidal effects | intracellular synthesis of proteoglycans, collagen and TNF-alpha ([5]; 1-3% aqueous boric acid): strongly decreases | release of proteoglycans, collagen and TNF-alpha into the culture medium ([5]; 1-3% aqueous boric acid): induces release | intracellular protein synthesis [5, 7]: does not decrease | protein secretion into the culture medium [5, 7]: still stimulates

NCCOB(c1ccccc1)c1ccccc1 [Example 2-APB, 2-amonoethoxydiphenyl borate]
inhibition of Ins(1,4,5)P3-induced Ca release [6]: inhibited | inhibition of cytosolic Ca rise (human platelets): inhibited | inhibition of cytosolic Ca rise (neutrophiles): inhibited

O.O.O.O.O=BOB1OB(OB=O)OB2OB([O-])OB([O-])OB(O1)O2.[Na+].[Na+] [disodium octaborate tetrahydrate]
larvicidal effects (cat fleas): Larvicidal effects
